Legend:
C3/C5-epimerase (HS:42) = target: T1, C3/C5-epimerase (HS:42) (Campylobacter jejuni, UniProt F2X7E5); assay: coupled turnover of purified […] to […], D2O exchange at C3 and C5, ESI-MS; assay type: biochemical; settings: 5.0 mM NADPH and HS:42 C4-reductase, pH 8.0, 40 h
T1 construct: gene HS42.11

[1] = test system: C4-reductase (HS:51/HS:53); assay: NADPH oxidation at […] nm; assay type: biochemical, Campylobacter jejuni; settings: apparent; 300 μM NADPH, 50 mM HEPES pH 7.5, 30 °C; substrate made with Cj1427

T1 sequence (F2X7E5 entry or part of it): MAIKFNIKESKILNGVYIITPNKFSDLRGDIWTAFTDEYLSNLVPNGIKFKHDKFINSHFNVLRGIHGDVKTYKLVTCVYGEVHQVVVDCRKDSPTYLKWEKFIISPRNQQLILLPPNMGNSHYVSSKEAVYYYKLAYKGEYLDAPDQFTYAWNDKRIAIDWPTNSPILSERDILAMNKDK

**Q.** With `Nc1nc2c(ncn2[C@@H]2O[C@H](COP(=O)(O)OP(=O)(O)O[C@H]3O[C@H]([C@H](O)CO)C(=O)[C@H](O)[C@@H]3O)[C@@H](O)[C@H]2O)c(=O)[nH]1` [compound 22, GDP-D-glycero-4-keto-α-D-lyxo-heptose] as the compound, how does the “coupled turnover of purified 22 to 30, D2O exchange at C3 and C5, ESI-MS” value (C3/C5-epimerase (HS:42)) read?
**A.** Its value is “Epimerases from the same serotype of each C4-reductase were used for each reaction”.

**Q.** And the Km [1]?
**A.** Its Km is 53 ± 6 µM.

— article PMC10680097 (Biochemistry, 2023)
